Columns and labels:
[1] = test system: Dravet syndrome patients; conditions: cited from earlier work
[2] = biological target: serotonin 5-HT2B receptor (Homo sapiens, UniProt P41595); conditions: cited from earlier work
[3] = biological target: serotonin 5-HT2A receptor (Homo sapiens, UniProt P28223); conditions: cited from earlier work
[4] = biological target: T1, serotonin 5-HT2C receptor (Homo sapiens, UniProt P28335); conditions: cited from earlier work
T1 sequence (P28335 33-458): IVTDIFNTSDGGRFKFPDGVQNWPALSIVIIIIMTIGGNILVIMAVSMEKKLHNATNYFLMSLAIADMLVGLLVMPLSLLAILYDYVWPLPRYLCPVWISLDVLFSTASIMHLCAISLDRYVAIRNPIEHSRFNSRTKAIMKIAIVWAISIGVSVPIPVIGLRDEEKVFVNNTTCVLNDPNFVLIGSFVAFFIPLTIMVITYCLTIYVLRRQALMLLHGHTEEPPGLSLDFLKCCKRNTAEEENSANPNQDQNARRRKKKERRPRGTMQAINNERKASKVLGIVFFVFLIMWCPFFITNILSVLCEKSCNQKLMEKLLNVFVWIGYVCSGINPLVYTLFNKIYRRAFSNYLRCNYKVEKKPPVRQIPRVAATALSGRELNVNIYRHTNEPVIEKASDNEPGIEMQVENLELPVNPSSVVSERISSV

[5] = test system: Dravet syndrome patients; conditions: Dravet syndrome (Devinsky, NEJM 2017); cited from earlier work
[6] = test system: children and young adults with Dravet syndrome; experiment: Study 1: Clinical Global Impression of Improvement (CGI-I); type: in vivo, Human; conditions: either 0.2 or 0.8 mg/kg/day dose
Method: CGI-S and CGI-I ratings were made by clinical investigators and parent/caregivers in a series of phase III trials of fenfluramine. CGI changes were measured in two randomized, controlled trials with results reported herein. Study 1 was conducted as described in Example 1 and CGI ratings were made according to a set schedule of visits made to the clinic. Tables of results and bar graphs of the statistical analyses of CGI ratings for Study 1 at visit twelve (day 113) are provided in FIGS. 1-4. […] Similar results were obtained with investigator CGI-I rating.
In Study 1, subjects were assessed using Clinical Global Impression (CGI), allowing the parent/caregiver and principal investigator to assess improvement, as well as the Quality of Life in Childhood Epilepsy (QOLCE) Scale and the Pediatric Quality of Life Inventory (PedsQL) to measure changes in the quality of life of the subject. Comparisons between treatment groups were made using Wilcoxon rank sum tests.
(§1) The CGI scale measures the change in the subject's clinical status from a specific point in time, i.e., the Baseline Period (and also referred to as the CGI-S, an initial ranking of severity). The CGI rating scale permits a global evaluation of the subject's improvement over time.

[7] = test system: subjects with Dravet syndrome; experiment: Study 1503: open-label long-term extension, CGI-I at baseline and final visit; type: in vivo, Human; conditions: OLE Final Visit
Method: Study 1503 was an open-label, long-term safety study of ZX008 in subjects with Dravet syndrome who successfully completed 14 weeks of treatment in 1501, 1502, or 1504 Cohorts 1 and 2. […] CGI-S(baseline scores) were determined at entry into 1503 (i.e., after completing a blinded 16 week trial) and then again at each patient's final visit. FIGS. 7 and 8, and Tables 3 and 4 present numbers of patients having each of the 7 ratings and statistical calculations of improvements.
as §1

Chain of serotonin 5-HT2B receptor (P41595 whole entry): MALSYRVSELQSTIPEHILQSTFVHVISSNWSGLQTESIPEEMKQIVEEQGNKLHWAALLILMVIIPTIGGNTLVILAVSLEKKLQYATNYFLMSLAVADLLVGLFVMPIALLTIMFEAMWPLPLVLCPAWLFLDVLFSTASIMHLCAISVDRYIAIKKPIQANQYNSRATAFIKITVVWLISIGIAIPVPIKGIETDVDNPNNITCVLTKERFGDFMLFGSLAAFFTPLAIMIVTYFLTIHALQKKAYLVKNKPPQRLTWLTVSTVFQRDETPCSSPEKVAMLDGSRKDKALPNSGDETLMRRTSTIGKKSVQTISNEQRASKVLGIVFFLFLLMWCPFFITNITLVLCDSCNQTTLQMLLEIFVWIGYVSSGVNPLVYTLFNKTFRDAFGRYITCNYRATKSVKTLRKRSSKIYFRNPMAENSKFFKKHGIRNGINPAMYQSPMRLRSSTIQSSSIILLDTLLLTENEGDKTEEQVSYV
Chain of serotonin 5-HT2A receptor (P28223 whole entry): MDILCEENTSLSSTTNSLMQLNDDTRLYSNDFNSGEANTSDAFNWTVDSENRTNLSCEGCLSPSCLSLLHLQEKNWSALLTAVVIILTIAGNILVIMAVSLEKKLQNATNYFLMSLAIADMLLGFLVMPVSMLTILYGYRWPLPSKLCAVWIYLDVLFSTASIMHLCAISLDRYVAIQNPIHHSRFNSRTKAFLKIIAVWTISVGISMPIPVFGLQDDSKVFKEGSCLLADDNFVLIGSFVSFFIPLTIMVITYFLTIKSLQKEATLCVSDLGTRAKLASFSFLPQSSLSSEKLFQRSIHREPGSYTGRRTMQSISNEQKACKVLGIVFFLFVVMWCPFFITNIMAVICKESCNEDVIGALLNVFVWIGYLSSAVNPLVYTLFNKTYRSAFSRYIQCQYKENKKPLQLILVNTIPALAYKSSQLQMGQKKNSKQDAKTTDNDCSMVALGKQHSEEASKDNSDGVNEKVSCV

CC(C)(C)C(O)/C=C/c1ccc2c(c1)OCO2 (stereo not shown) [Stiripentol, stiripentol]
Reduction of tonic-clonic seizure rate [1]: 70%

CC(N)Cc1cccc(C(F)(F)F)c1 (stereo not shown) [norfenfluramine]
Binds to and activates serotonin 5-HT2B receptor, affinity [2]: high affinity
Binds to and activates serotonin 5-HT2A receptor, affinity [3]: moderate affinity
Binds to and activates serotonin 5-HT2C receptor, affinity [4]: high affinity

C=C(C)[C@@H]1CCC(C)=C[C@H]1c1c(O)cc(CCCCC)cc1O [cannabidiol]
Cognitive function, active treatment groups vs placebo [5]: did not achieve significant difference from placebo

CCNC(C)Cc1cccc(C(F)(F)F)c1 (racemic) [fenfluramine, (RS)—N-ethyl-1-[3-(trifluoromethyl)phenyl]propan-2-amine, reference compound]
Parents/caregivers rating their children 'very much improved' or 'much improved' (CGI-I) vs placebo group [6]: Significantly more
CGI-I investigator, Improved (1, 2, 3), % [7]: 85.4%
CGI-I investigator, Much/very much improved (1, 2), % [7]: 64.2%
CGI-I parent/caregiver, Improved (1, 2, 3), % [7]: 82.3%
CGI-I parent/caregiver, Much/very much improved (1, 2), % [7]: 62.5%

Source: patent US20200306210A1 (ZOGENIX INTERNATIONAL LIMITED, priority 2017, published 2020)
